Measurements from PubChem BioAssay (NCI).
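How tested: cells in 96-well plates exposed to compound for 48 hours at five concentrations. TGI denotes the concentration required for complete inhibition of growth.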

Columns and labels:
Assay in all cases: DTP human tumour cell line panel, 48 h
786-0 renal = tested on: 786-0 renal
A498 renal = tested on: A498 renal
A549 NSCLC = tested on: A549 NSCLC
ACHN renal = tested on: ACHN renal
BT-549 breast = tested on: BT-549 breast
CAKI-1 renal = tested on: CAKI-1 renal
CCRF-CEM leukemia = tested on: CCRF-CEM leukemia
EKVX NSCLC = tested on: EKVX NSCLC
HCC-2998 colon = tested on: HCC-2998 colon
HCT-116 colon = tested on: HCT-116 colon
HCT-15 colon = tested on: HCT-15 colon
HL-60(TB) leukemia = tested on: HL-60(TB) leukemia
HOP-62 NSCLC = tested on: HOP-62 NSCLC
HOP-92 NSCLC = tested on: HOP-92 NSCLC
HS 578T breast = tested on: HS 578T breast
HT29 colon = tested on: HT29 colon
IGROV1 ovarian = tested on: IGROV1 ovarian
K-562 leukemia = tested on: K-562 leukemia
KM12 colon = tested on: KM12 colon
LOX IMVI melanoma = tested on: LOX IMVI melanoma
M14 melanoma = tested on: M14 melanoma
MALME-3M melanoma = tested on: MALME-3M melanoma
MCF7 breast = tested on: MCF7 breast
MDA-MB-435 = tested on: MDA-MB-435
MDA-N = tested on: MDA-N
MOLT-4 leukemia = tested on: MOLT-4 leukemia
NCI-H226 lung = tested on: NCI-H226 lung
NCI-H23 lung = tested on: NCI-H23 lung
NCI-H460 lung = tested on: NCI-H460 lung
NCI-H522 lung = tested on: NCI-H522 lung
NCI/ADR-RES ovarian = tested on: NCI/ADR-RES ovarian
OVCAR-3 ovarian = tested on: OVCAR-3 ovarian
OVCAR-4 ovarian = tested on: OVCAR-4 ovarian
OVCAR-5 ovarian = tested on: OVCAR-5 ovarian
OVCAR-8 ovarian = tested on: OVCAR-8 ovarian
PC-3 prostate = tested on: PC-3 prostate
RPMI-8226 leukemia = tested on: RPMI-8226 leukemia
RXF 393 renal = tested on: RXF 393 renal
SF-268 CNS = tested on: SF-268 CNS
SF-295 CNS = tested on: SF-295 CNS
SF-539 CNS = tested on: SF-539 CNS
SK-MEL-2 melanoma = tested on: SK-MEL-2 melanoma
SK-MEL-28 melanoma = tested on: SK-MEL-28 melanoma
SK-OV-3 ovarian = tested on: SK-OV-3 ovarian
SN12C renal = tested on: SN12C renal
SNB-19 CNS = tested on: SNB-19 CNS
SNB-75 CNS = tested on: SNB-75 CNS
SR leukemia = tested on: SR leukemia
SW-620 colon = tested on: SW-620 colon
TK-10 renal = tested on: TK-10 renal
U251 CNS = tested on: U251 CNS
UACC-257 melanoma = tested on: UACC-257 melanoma
UACC-62 melanoma = tested on: UACC-62 melanoma
UO-31 renal = tested on: UO-31 renal

Measured: TGI

Cc1cc2c(cc1C)[n+]([O-])c(NCCCN(C)C)c(C#N)[n+]2[O-]
> 100 µM: 786-0 renal | A498 renal | A549 NSCLC | ACHN renal | BT-549 breast | CAKI-1 renal | CCRF-CEM leukemia | EKVX NSCLC | HCC-2998 colon | HCT-116 colon | HCT-15 colon | HL-60(TB) leukemia | HOP-62 NSCLC | HOP-92 NSCLC | HS 578T breast | HT29 colon | IGROV1 ovarian | K-562 leukemia | KM12 colon | LOX IMVI melanoma | M14 melanoma | MALME-3M melanoma | MCF7 breast | MDA-MB-435 | MDA-N | MOLT-4 leukemia | NCI-H226 lung | NCI-H23 lung | NCI-H460 lung | NCI-H522 lung | NCI/ADR-RES ovarian | OVCAR-3 ovarian | OVCAR-4 ovarian | OVCAR-5 ovarian | OVCAR-8 ovarian | PC-3 prostate | RPMI-8226 leukemia | RXF 393 renal | SF-268 CNS | SF-295 CNS | SF-539 CNS | SK-MEL-2 melanoma | SK-MEL-28 melanoma | SK-OV-3 ovarian | SN12C renal | SNB-19 CNS | SNB-75 CNS | SR leukemia | SW-620 colon | TK-10 renal | U251 CNS | UACC-257 melanoma | UACC-62 melanoma | UO-31 renal
